Like-named read-outs stand apart in the source and are kept apart here.

The target of test [1] is T1, leucine aminopeptidase from porcine kidney (SsLAP) (Sus scrofa, UniProt P28839).
T1 construct: Leucine aminopeptidase from porcine kidney (SsLAP) [26] and barley seeds (HvLAP) [21] were isolated and purified; from tissue; host or cells: porcine kidney
T1 sequence (P28839 1-519): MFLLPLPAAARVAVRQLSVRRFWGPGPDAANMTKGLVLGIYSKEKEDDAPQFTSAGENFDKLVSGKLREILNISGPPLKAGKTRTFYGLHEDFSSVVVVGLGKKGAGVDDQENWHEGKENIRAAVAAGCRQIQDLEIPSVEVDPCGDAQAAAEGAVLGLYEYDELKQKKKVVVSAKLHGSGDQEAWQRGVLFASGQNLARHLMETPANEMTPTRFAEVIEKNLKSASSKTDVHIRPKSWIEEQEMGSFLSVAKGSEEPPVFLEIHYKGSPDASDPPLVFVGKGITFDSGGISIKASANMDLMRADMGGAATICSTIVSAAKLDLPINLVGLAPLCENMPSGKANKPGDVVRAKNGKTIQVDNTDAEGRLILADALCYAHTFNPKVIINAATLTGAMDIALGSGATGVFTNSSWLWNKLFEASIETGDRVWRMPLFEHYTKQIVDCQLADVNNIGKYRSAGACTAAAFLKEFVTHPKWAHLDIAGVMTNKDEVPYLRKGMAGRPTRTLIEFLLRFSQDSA
Briefly: Inhibition of porcine kidney leucine aminopeptidase (enzyme kinetics). Type of test: biochemical. The conditions noted are these: porcine kidney LAP; compounds assayed as racemic mixtures. The text has this:
(§1) Chemical and biochemical materials were purchased from Sigma-Aldrich (Poznań, Poland) and Avantor Performance Materials (Gliwice, Poland), and were used without further purification. Fluorogenic substrate Ala-AMC (L-alanine-4-methylcoumaryl-7-amide) was purchased from PeptaNova (Sandhausen, Germany). Microsomal alanyl aminopeptidase from porcine kidney (SsAPN) was purchased from Sigma-Aldrich (Poznań, Poland), and recombinant human alanine aminopeptidase (HsAPN) from R&D System (Minneapolis, MN, USA). Leucine aminopeptidase from porcine kidney (SsLAP) and barley seeds (HvLAP) were isolated and purified according to the procedures described previously. ^1H, ^13C, and ^31P NMR spectra were recorded on a 400YH (JEOL, Tokyo, Japan) spectrometer at 295 K. Mass spectra analyses were performed on a spectrometer LC-MS QDa (Waters e2695, 2489 UV/Vis Detector, Acquity QDa detector). HRMS spectra were registered using a Waters LCT Premier XE mass spectrometer (electrospray ionization, ESI) (Waters, Milford, MA, USA). The progress of the enzymatic reactions was monitored spectrophotometrically (UV-VIS Spectrophotometer, JASCO V-730) by following the change in absorbance at 405 nm (formation of p-nitroaniline), or by measuring fluorescence with a spectrofluorometer SpectraMax Gemini EM (Molecular Devices, San Jose, CA, USA) operating at two wavelengths: excitation 355 nm and emission 460 nm (for AMC).
(§2) The current studies followed the methodologies of the enzyme kinetic experiments, with calculation of the inhibition constants, and the mechanism of inhibition, which are presented in detail in our previous papers: For microsomal alanyl aminopeptidase from porcine kidney, recombinant human alanine aminopeptidase, leucine aminopeptidase from porcine kidney, and leucine aminopeptidase from barley seeds ([…]).

The target of test [2] is T2, microsomal alanyl aminopeptidase from porcine kidney (SsAPN) (Sus scrofa, UniProt P15145).
T2 construct: Microsomal alanyl aminopeptidase from porcine kidney (SsAPN) was purchased from Sigma-Aldrich; purchased Sigma-Aldrich (Poznań, Poland); host or cells: porcine kidney
T2 sequence (P15145 1-963): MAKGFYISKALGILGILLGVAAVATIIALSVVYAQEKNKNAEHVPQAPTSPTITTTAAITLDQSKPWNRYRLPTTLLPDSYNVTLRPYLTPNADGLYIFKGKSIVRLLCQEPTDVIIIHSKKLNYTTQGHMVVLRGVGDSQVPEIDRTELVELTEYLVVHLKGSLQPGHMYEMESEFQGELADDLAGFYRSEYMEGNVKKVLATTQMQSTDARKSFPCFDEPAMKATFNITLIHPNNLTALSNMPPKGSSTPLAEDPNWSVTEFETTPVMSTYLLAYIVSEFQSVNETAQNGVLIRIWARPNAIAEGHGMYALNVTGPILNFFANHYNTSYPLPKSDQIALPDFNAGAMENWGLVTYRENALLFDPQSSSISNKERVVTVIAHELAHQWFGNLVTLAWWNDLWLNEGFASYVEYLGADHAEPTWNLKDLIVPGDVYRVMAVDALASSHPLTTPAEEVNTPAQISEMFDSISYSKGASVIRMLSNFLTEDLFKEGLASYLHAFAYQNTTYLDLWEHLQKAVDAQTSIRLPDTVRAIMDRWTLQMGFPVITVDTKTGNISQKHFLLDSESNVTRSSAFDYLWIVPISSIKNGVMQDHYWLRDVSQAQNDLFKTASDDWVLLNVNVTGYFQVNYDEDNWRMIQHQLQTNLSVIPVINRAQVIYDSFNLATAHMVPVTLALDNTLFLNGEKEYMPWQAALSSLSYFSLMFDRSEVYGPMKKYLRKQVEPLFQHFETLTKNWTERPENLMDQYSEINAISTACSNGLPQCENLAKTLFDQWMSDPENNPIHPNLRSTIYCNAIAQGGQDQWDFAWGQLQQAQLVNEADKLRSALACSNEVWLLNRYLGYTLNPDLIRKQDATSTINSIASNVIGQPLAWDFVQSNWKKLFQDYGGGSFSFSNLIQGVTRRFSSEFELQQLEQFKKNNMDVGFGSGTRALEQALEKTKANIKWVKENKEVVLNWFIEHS
As to the kind of experiment: Inhibition of porcine kidney alanyl aminopeptidase (enzyme kinetics). The conditions noted are these: porcine APN; compounds assayed as racemic mixtures. Type of test: biochemical.
Excerpt: as §1, §2

For test [3], the target named is T3, recombinant human alanine aminopeptidase (HsAPN) (Homo sapiens, UniProt P15144).
T3 construct: purchased R&D System (Minneapolis, MN, USA)
T3 sequence (P15144 whole entry): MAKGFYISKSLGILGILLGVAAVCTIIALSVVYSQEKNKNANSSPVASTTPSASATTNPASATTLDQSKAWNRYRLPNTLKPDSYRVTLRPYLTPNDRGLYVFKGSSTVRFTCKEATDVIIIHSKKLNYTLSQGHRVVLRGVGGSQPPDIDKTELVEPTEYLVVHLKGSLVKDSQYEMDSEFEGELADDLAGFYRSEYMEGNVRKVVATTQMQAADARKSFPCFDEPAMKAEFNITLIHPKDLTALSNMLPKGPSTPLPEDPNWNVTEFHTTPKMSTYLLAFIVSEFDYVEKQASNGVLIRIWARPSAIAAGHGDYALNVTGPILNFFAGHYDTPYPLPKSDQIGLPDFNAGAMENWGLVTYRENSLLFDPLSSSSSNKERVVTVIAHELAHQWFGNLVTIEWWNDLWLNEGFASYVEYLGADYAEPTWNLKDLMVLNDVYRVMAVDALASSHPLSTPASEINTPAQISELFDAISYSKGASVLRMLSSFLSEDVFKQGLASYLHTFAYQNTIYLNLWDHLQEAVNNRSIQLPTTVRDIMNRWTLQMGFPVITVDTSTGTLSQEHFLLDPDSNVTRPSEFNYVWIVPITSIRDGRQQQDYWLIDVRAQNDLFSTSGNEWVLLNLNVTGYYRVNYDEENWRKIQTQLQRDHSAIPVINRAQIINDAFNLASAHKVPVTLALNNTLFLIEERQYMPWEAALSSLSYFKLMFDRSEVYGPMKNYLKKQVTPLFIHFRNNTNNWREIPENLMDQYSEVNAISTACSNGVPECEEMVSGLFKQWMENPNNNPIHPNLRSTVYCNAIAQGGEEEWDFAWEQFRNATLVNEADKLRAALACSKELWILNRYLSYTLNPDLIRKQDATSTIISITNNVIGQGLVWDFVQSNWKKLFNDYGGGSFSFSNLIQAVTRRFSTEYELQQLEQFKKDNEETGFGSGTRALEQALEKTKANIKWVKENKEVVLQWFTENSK
Briefly: Inhibition of recombinant human alanine aminopeptidase (enzyme kinetics). Format: biochemical. Conditions: for Ki: human APN; for Activity for human APN (in words): summary statement.
Excerpt: as §1, §2

Test [4] addresses T2, microsomal alanyl aminopeptidase from porcine kidney (SsAPN). More on the design: method as in doi:10.1016/j.tetlet.2011.04.037. The conditions noted are these: porcine APN; reference compound, reported previously; cited from earlier work.
Test [5] has as its target T1, leucine aminopeptidase from porcine kidney (SsLAP). More on the design: method as in doi:10.1016/j.tetlet.2011.04.037. The conditions noted are these: porcine kidney LAP; reference compound, reported previously; cited from earlier work.
Test [6] deals with thermolysin. The conditions noted are these: competitive tight-binding inhibitor; cited from earlier work.
[7] abbreviates: compounds assayed as racemic mixtures, read-out: Ki HsAPN.

The Ki is a dissociation constant, usually derived from enzyme kinetics or from competition with a known ligand. In the case of `NC(CCc1ccccc1)P(=O)(O)CN(CC(=O)O)Cc1ccc(Br)cc1` (stereo not drawn) [6b, N-{[1-Amino-3-phenylpropyl(hydroxy)phosphoryl]methyl}-N-4-bromobenzylaminoacetic acid], the Ki in test [1] is 168 µM; in test [2], 5.8 µM; in test [3] (setting [7]), 0.13 µM. The “Activity for human APN (in words)” value in test [3] is on record as “potent submicromolar activity”.
For the compound `NC(CCc1ccccc1)P(=O)(O)CNCC(=O)O` (stereo not drawn) [6g, N-{[1-Amino-3-phenylpropyl(hydroxy)phosphoryl]methyl}aminoacetic acid], the inhibition constant (Ki) in test [1] is 29 µM; in test [2] it was 63 µM.
For `NC(CCc1ccccc1)P(=O)(O)CN(CC(=O)O)Cc1ccccc1` (stereo not drawn) [compound 1], the Ki is 3 µM in test [4] and 52 µM in test [5].
With `CC(C)CC(NP(=O)(O)C(Cc1ccccc1)NC(=O)OCc1ccccc1)C(=O)NC(C)C(=O)O` (stereo not drawn) [Cbz-PheP[NH]Leu-Ala-OH], the “Ki thermolysin (in words)” value in test [6] is “picomolar range”.
`NC(CCc1ccccc1)P(=O)(O)CN(CC(=O)O)Cc1ccc(Cl)cc1Cl` (stereo not drawn) [6a, N-{[1-Amino-3-phenylpropyl(hydroxy)phosphoryl]methyl}-N-2,4-dichlorobenzylaminoacetic acid]: the Ki came out at 107 µM in test [1]; 7.7 µM in test [2]; 0.102 µM in test [3] (value of the abstract, read-out: Ki human alanyl aminopeptidase); 0.1 µM in test [3] (setting [7]). The “Activity for human APN (in words)” value in test [3] is “potent submicromolar activity”.
On to `NC(CCc1ccccc1)P(=O)(O)CN(CC(=O)O)Cc1ccc([N+](=O)[O-])cc1` (stereo not drawn) [6d, N-{[1-Amino-3-phenylpropyl(hydroxy)phosphoryl]methyl}-N-4-nitrobenzylaminoacetic acid], for which the results for the Ki in test [1], in test [2] and in test [3] (setting [7]) were 53 µM, 17 µM and 0.24 µM, respectively. Further, the “Activity for human APN (in words)” value in test [3] was “potent submicromolar activity”.
Regarding `NC(CCc1ccccc1)P(=O)(O)CN(CC(=O)O)Cc1ccc(C(=O)O)cc1` (stereo not drawn) [6c, N-{[1-Amino-3-phenylpropyl(hydroxy)phosphoryl]methyl}-N-4-carboxybenzylaminoacetic acid], the Ki came out at 27 µM in test [1], 34 µM in test [2] and 1.4 µM in test [3] (setting [7]).

The record behind these values is publication PMC7571175, “N-Benzyl Residues as the P1′ Substituents in Phosphorus-Containing Extended Transition State Analog Inhibitors of Metalloaminopeptidases” (Molecules, 2020).
